Measurements published in PubChem BioAssay (NCI).
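GI50 is the concentration that inhibits growth by half. TGI: concentration producing complete growth inhibition.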

Columns and labels:
Assay in all cases: NCI-60 cell line screen, 384-well format
[1] = system: SK-MEL-5 melanoma
[2] = system: MDA-MB-435 melanoma
[3] = system: SF-295 CNS
[4] = system: HCT-15 colon
[5] = system: SNB-19 CNS
[6] = system: DU-145 prostate
[7] = system: OVCAR-8 ovarian
[8] = system: OVCAR-5 ovarian
[9] = system: SK-MEL-28 melanoma
[10] = system: NCI-H226 lung
[11] = system: HCT-116 colon
[12] = system: SK-MEL-2 melanoma
[13] = system: NCI-H23 lung
[14] = system: SN12C renal
[15] = system: U251 glioblastoma
[16] = system: LOX IMVI melanoma
[17] = system: UACC-257 melanoma
[18] = system: RXF 393 renal
[19] = system: UO-31 renal
[20] = system: 786-0 renal
[21] = system: PC-3 prostate
[22] = system: CAKI-1 renal
[23] = system: BT-549 breast
[24] = system: A498 renal
[25] = system: HOP-92 NSCLC
[26] = system: UACC-62 melanoma
[27] = system: MALME-3M melanoma
[28] = system: SF-268 CNS
[29] = system: TK-10 renal
[30] = system: M14 melanoma
[31] = system: IGROV1 ovarian
[32] = system: A549 NSCLC
[33] = system: HT29 colon
[34] = system: OVCAR-4 ovarian
[35] = system: HCC-2998 colon
[36] = system: MCF7 breast
[37] = system: RPMI-8226 leukemia
[38] = system: KM12 colon
[39] = system: HL-60(TB) leukemia
[40] = system: NCI-H522 lung
[41] = system: OVCAR-3 ovarian
[42] = system: NCI-H322M lung
[43] = system: SR leukemia
[44] = system: MDA-MB-231 breast
[45] = system: SF-539 CNS
[46] = system: HOP-62 NSCLC
[47] = system: T-47D breast
[48] = system: ACHN renal
[49] = system: NCI-H460 NSCLC
[50] = system: CCRF-CEM leukemia
[51] = system: MOLT-4 leukemia
[52] = system: SW-620 colon
[53] = system: MDA-MB-468 breast
[54] = system: SK-OV-3 ovarian
[55] = system: NCI/ADR-RES ovarian
[56] = system: COLO 205 colon
[57] = system: HS 578T breast
[58] = system: SNB-75 CNS
[59] = system: K-562 leukemia
[60] = system: EKVX NSCLC

In the case of `Cc1ncc(NC(=O)c2ccc(CN3CCN(C)CC3)c(C(F)(F)F)c2)cc1Nc1nccc(-c2cccnc2)n1`, the GI50 [1] is reported as 1.44 µM, the TGI [1] is reported as 16.4 µM and the GI50 [2] is reported as 4.56 µM. It also gave a TGI [2] of 19.2 µM, a GI50 [3] of 19.5 µM and a TGI [3] of 33.7 µM. For the same compound, the GI50 [4] was 1.82 µM, the TGI [4] was 3.6 µM and the GI50 [5] was 15.7 µM. The TGI [5] was 29.2 µM, the GI50 [6] was 15.4 µM and the TGI [6] was 28.8 µM. It also gave a GI50 [7] of 11.3 µM, a TGI [7] of 23.5 µM and a GI50 [8] of 14.4 µM. For the same compound, the TGI [8] was 27.6 µM, the GI50 [9] was 1.78 µM and the TGI [9] was 14.9 µM. The GI50 [10] was 12.4 µM, the TGI [10] was 25 µM and the GI50 [11] was 1.18 µM. It also gave a TGI [11] of 2.43 µM, a GI50 [12] of 2.46 µM and a TGI [12] of 8.05 µM. It also gave a GI50 [13] of 13.7 µM, a TGI [13] of 26.7 µM and a GI50 [14] of 17.4 µM. The TGI [14] was 31.2 µM, the GI50 [15] was 1.82 µM and the TGI [15] was 3.31 µM. The GI50 [16] was 1.95 µM, the TGI [16] was 3.37 µM and the GI50 [17] was 1.06 µM. It also gave a TGI [17] of 2.24 µM, a GI50 [18] of 1.66 µM and a TGI [18] of 3.59 µM. It also gave a GI50 [19] of 11.4 µM, a TGI [19] of 23.5 µM and a GI50 [20] of 1.51 µM. For the same compound, the TGI [20] was 2.89 µM, the GI50 [21] was 13.6 µM and the TGI [21] was 26.6 µM. For the same compound, the GI50 [22] was 7.3 µM, the TGI [22] was 19.4 µM and the GI50 [23] was 2.17 µM. For the same compound, the TGI [23] was 3.69 µM, the GI50 [24] was 1.89 µM and the TGI [24] was 3.55 µM. It also gave a GI50 [25] of 6.68 µM, a TGI [25] of 19.4 µM and a GI50 [26] of 1.35 µM. For the same compound, the TGI [26] was 13.8 µM, the GI50 [27] was 0.289 µM and the TGI [27] was 1.46 µM. For the same compound, the GI50 [28] was 10.4 µM, the TGI [28] was 22.2 µM and the GI50 [29] was 12.9 µM. The TGI [29] was 25.5 µM, the GI50 [30] was 0.798 µM and the TGI [30] was 12.3 µM. It also gave a GI50 [31] of 13.2 µM, a TGI [31] of 26 µM and a GI50 [32] of 2.54 µM. It also gave a TGI [32] of 8.6 µM, a GI50 [33] of 1.04 µM and a TGI [33] of 2.22 µM. For the same compound, the GI50 [34] was 2.63 µM, the TGI [34] was 14.1 µM and the GI50 [35] was 3.72 µM. It also gave a TGI [35] of 17.6 µM, a GI50 [36] of 1.43 µM and a TGI [36] of 2.79 µM. It also gave a GI50 [37] of 0.745 µM, a TGI [37] of 2 µM and a GI50 [38] of 1.57 µM. For the same compound, the TGI [38] was 3.11 µM, the GI50 [39] was 0.956 µM and the TGI [39] was 2.12 µM. The GI50 [40] was 3.05 µM, the TGI [40] was 17.8 µM and the GI50 [41] was 1.74 µM. It also gave a TGI [41] of 3.31 µM, a GI50 [42] of 10.9 µM and a TGI [42] of 22.9 µM. For the same compound, the GI50 [43] was 1.66 µM, the TGI [43] was 3.02 µM and the GI50 [44] was 1.55 µM. It also gave a TGI [44] of 2.98 µM, a GI50 [45] of 1.32 µM and a TGI [45] of 2.6 µM. The GI50 [46] was 13.8 µM, the TGI [46] was 26.8 µM and the GI50 [47] was 12.1 µM. It also gave a TGI [47] of 24.6 µM, a GI50 [48] of 12.6 µM and a TGI [48] of 25.2 µM. It also gave a GI50 [49] of 1.65 µM, a TGI [49] of 3.26 µM and a GI50 [50] of 1.61 µM. It also gave a TGI [50] of 2.96 µM, a GI50 [51] of 1.28 µM and a TGI [51] of 2.54 µM. For the same compound, the GI50 [52] was 1.84 µM, the TGI [52] was 3.29 µM and the GI50 [53] was 10.8 µM. The TGI [53] was 22.8 µM, the GI50 [54] was 1.94 µM and the TGI [54] was 3.89 µM. It also gave a GI50 [55] of 10.6 µM, a TGI [55] of 22.4 µM and a GI50 [56] of 1.27 µM. The TGI [56] was 14.5 µM.
With `CNC(=O)c1cn(C[C@H](F)CCc2ccc(NC(=O)Cc3cc(OC4CC(F)(F)C4)cc(C)n3)nn2)nn1` the GI50 [2] was > 100 µM, the TGI [2] was > 100 µM and the GI50 [3] was 1.51 µM. The TGI [3] was > 100 µM, the GI50 [4] was > 100 µM and the TGI [4] was > 100 µM. The GI50 [57] was 0.0721 µM, the TGI [57] was 0.533 µM and the GI50 [5] was > 100 µM. The TGI [5] was > 100 µM, the GI50 [6] was 0.401 µM and the TGI [6] was 7.68 µM. The GI50 [7] was > 100 µM, the TGI [7] was > 100 µM and the GI50 [58] was > 100 µM. For the same compound, the TGI [58] was > 100 µM, the GI50 [8] was > 100 µM and the TGI [8] was > 100 µM. For the same compound, the GI50 [9] was > 100 µM, the TGI [9] was > 100 µM and the GI50 [10] was > 100 µM. The TGI [10] was > 100 µM, the GI50 [11] was > 100 µM and the TGI [11] was > 100 µM. For the same compound, the GI50 [12] was 0.436 µM, the TGI [12] was > 100 µM and the GI50 [13] was > 100 µM. For the same compound, the TGI [13] was > 100 µM, the GI50 [14] was 0.0398 µM and the TGI [14] was 0.32 µM. The GI50 [15] was 0.119 µM, the TGI [15] was > 100 µM and the GI50 [17] was > 100 µM. The TGI [17] was > 100 µM, the GI50 [18] was 0.0276 µM and the TGI [18] was 0.11 µM. For the same compound, the GI50 [19] was > 100 µM, the TGI [19] was > 100 µM and the GI50 [21] was > 100 µM. For the same compound, the TGI [21] was > 100 µM, the GI50 [22] was 0.38 µM and the TGI [22] was > 100 µM. For the same compound, the GI50 [23] was > 100 µM, the TGI [23] was > 100 µM and the GI50 [24] was 0.163 µM. For the same compound, the TGI [24] was 0.492 µM, the GI50 [25] was > 100 µM and the TGI [25] was > 100 µM. For the same compound, the GI50 [26] was > 100 µM, the TGI [26] was > 100 µM and the GI50 [27] was > 100 µM. The TGI [27] was > 100 µM, the GI50 [28] was 0.407 µM and the TGI [28] was > 100 µM. For the same compound, the GI50 [29] was 0.31 µM, the TGI [29] was > 100 µM and the GI50 [30] was > 100 µM. The TGI [30] was > 100 µM, the GI50 [59] was 85.1 µM and the TGI [59] was > 100 µM. The GI50 [31] was > 100 µM, the TGI [31] was > 100 µM and the GI50 [32] was 0.0278 µM. For the same compound, the TGI [32] was 0.0879 µM, the GI50 [33] was > 100 µM and the TGI [33] was > 100 µM. The GI50 [34] was > 100 µM, the TGI [34] was > 100 µM and the GI50 [36] was > 100 µM. The TGI [36] was > 100 µM, the GI50 [38] was 0.946 µM and the TGI [38] was > 100 µM. For the same compound, the GI50 [39] was > 100 µM, the TGI [39] was > 100 µM and the GI50 [40] was 0.31 µM. For the same compound, the TGI [40] was > 100 µM, the GI50 [60] was > 100 µM and the TGI [60] was > 100 µM. The GI50 [41] was > 100 µM, the TGI [41] was > 100 µM and the GI50 [42] was 0.0772 µM. The TGI [42] was 0.321 µM, the GI50 [43] was 18.8 µM and the TGI [43] was > 100 µM. For the same compound, the GI50 [44] was 0.389 µM, the TGI [44] was > 100 µM and the GI50 [45] was > 100 µM. The TGI [45] was > 100 µM, the GI50 [46] was 0.127 µM and the TGI [46] was 0.594 µM. The GI50 [47] was > 100 µM, the TGI [47] was > 100 µM and the GI50 [48] was > 100 µM. For the same compound, the TGI [48] was > 100 µM, the GI50 [51] was 66.8 µM and the TGI [51] was > 100 µM. The GI50 [52] was > 100 µM, the TGI [52] was > 100 µM and the GI50 [53] was > 100 µM. For the same compound, the TGI [53] was > 100 µM, the GI50 [56] was > 100 µM and the TGI [56] was > 100 µM.
